{"source": "patent US10106505B2", "about": "“Composition and methods for modulating a kinase cascade” (Athenex, Inc., priority 2012, dated 2018)", "key": {"aggressive brain tumors": {"system": "aggressive brain tumors", "test": "Mice with aggressive brain tumors (mouse model of malignant glioma)", "format": "in vivo", "procedure": "(§1) Compound 1 is a synthetic, orally bioavailable, novel small molecule microtubule polymerization inhibitor with very high CNS penetration. The efficacy of compound 1 as a novel anti-cancer agent is tested directly using mouse model of malignant glioma. Compound 1 is an orally administered tubulin polymerization inhibitor that binds to a novel site on heterodimeric tubulin, and to a novel conformation of the dimer. Compound 1 can inhibit Src signaling in tumors. Compound 1 has been evaluated in various brain tumor cell lines. […] When administered orally to mice at a dose of 10 mg/kg, the ratio of drug levels in the brain compared to plasma levels was 0.76, indicating excellent blood brain barrier penetration.\n(§2) Compound 1 was evaluated in various human and mouse brain tumor cells derived from glioblastoma multiforme, astrocytoma and medulloblastoma. See, e.g., US2011/0281872. […] When administered to mice compound 1 penetrated the brain by 76%, thereby successfully addressing the first major challenge in brain cancer drug discovery. Drugs which are used to treat brain tumors often penetrate only 20% or less."}, "[1]": {"system": "various brain tumor cell lines (glioblastoma multiforme, astrocytoma, medulloblastoma)", "test": "Proliferation of brain tumor cell lines", "format": "cell-based, human and mouse", "procedure": "as §1, §2"}, "[2]": {"system": "GL261 intracerebral tumors", "test": "GL261 intracerebral tumors in immune-compromised SCID C57BL/6 mice", "format": "in vivo, SCID version of C57BL/6 mice (B6.CB17-Prkd^cscid/SzJ)", "procedure": "(§3) Compound 1 was also evaluated in the orthotropic GL261 glioma model in immune-competent, syngeneic C57BL/6 mice. Mice implanted intracerebrally with 1×1^05 GL261 cells treated with vehicle alone (saline) have a median survival time (MeST) of 21 days (range 18-28). Mice treated by oral compound 1 (30 mg/kg, b.i.d.) have a MeST of 30.5 days ranging 23-32 days. In contrast, when compound 1 is given orally at (30 mg/kg, s.i.d.) the MeST increases to over 120 days, with more than 60% of the treatment group still alive 12 months later (p<0.0001). […] Further experiments were performed using a SCID version of C57BL/6 mice (B6.CB17-Prkd^cscid/SzJ), a mouse model of B6 background, but is immune-compromised."}, "[3]": {"system": "c-Src (527F, constitutively active and transforming) transformed NIH3T3 cells", "test": "Src substrate phosphorylation in c-Src transformed NIH3T3 cells", "format": "cell-based", "details": "c-Src (527F) transformed NIH3T3 cells; in good correlation with growth inhibitory effects", "description": "(§4) Compounds of the invention may be Src signaling inhibitors that bind in the Src peptide substrate site. The activity of various compounds of the invention has been studied in c-Src (527F, constitutively active and transforming) transformed NIH3T3 cells and in human colon cancer cells (HT29)."}, "[4]": {"test": "Brain penetration after oral administration to mice", "format": "in vivo", "details": "mouse, 10 mg/kg", "procedure": "as §1, §2"}, "[5]": {"system": "human colon cancer cells (HT29)", "test": "Src substrate phosphorylation in HT29 cells", "format": "cell-based", "details": "in good correlation with growth inhibitory effects", "description": "as §4"}, "survivin": {"system": "survivin", "test": "Additional molecular studies on survivin"}, "GL261 glioma": {"system": "GL261 glioma", "test": "Orthotropic GL261 glioma model in immune-competent, syngeneic C57BL/6 mice", "format": "in vivo", "procedure": "as §3\nWhen given as a single dose per day (s.i.d.) compound 1 led to complete tumor regression in up to 60% of treated mice without further progression. […] This magnitude of anti-tumor effect was not observed in SCID models leading to the possibility that compound 1 may be involved in an anti-tumor immune response.\nWhen given single dose per day (s.i.d.) compound 1 led to complete tumor regression in up to 60% of treated mice without further progression."}, "[6]": {"details": "mice with aggressive brain tumors"}, "[7]": {"details": "immune-compromised SCID mice bearing GL261 intracerebral tumors"}, "[8]": {"details": "oral 30 mg/kg, b.i.d., C57BL/6, intracerebral GL261"}}, "note": "Entries after “also recorded” stand apart in the source; their conditions may differ. Read-outs that look alike come from different tables or passages of the source."}
{"smiles": "Cn1nnc2c(C(N)=O)ncn2c1=O", "note": "[Temodar, Temozolamide, reference compound]", "values": [{"measurement": "rate of tumor growth", "setting": "aggressive brain tumors; [6]", "value": "only slows the growth rate of the tumors"}, {"measurement": "complete tumor regression", "setting": "aggressive brain tumors; mice with aggressive brain tumors, comparison drug", "value": "does not cause complete tumor regression"}]}
{"smiles": "O=C(Cc1ccc(-c2ccc(N3CCOCC3)cc2)cn1)NCc1cccc(F)c1", "note": "[compound 1, N-(3-fluorobenzyl)-2-(5-(4-morpholinophenyl)pyridin-2-yl)acetamide]", "values": [{"measurement": "growth of brain tumor cells", "setting": "[1]; human and mouse brain tumor cells derived from glioblastoma multiforme, astrocytoma and medulloblastoma", "value": "potently inhibited the growth"}, {"measurement": "GI50", "setting": "[1]; various brain tumor cell lines, in all cases, read-out: GI50 (inhibition of proliferation)", "value": "< 55", "unit": "nM"}, {"measurement": "tumor outcome after drug was discontinued (observed by MRI)", "setting": "[2]; SCID mice surviving greater than 45 days", "value": "all proceeded to develop lethal GL261 gliomas"}, {"measurement": "median survival time (MeST)", "setting": "[2]; [7]", "value": 40, "unit": "days"}, {"measurement": "survival time range", "setting": "[2]; [7]", "value": "29 to 75", "unit": "days"}, {"measurement": "drug treated mice with complete tumor regression and no reoccurrence within normal full life span", "setting": "aggressive brain tumors; [6]", "value": "up to 60%"}, {"measurement": "rate of tumor growth", "setting": "aggressive brain tumors; [6]", "value": "very significantly slows the rate of tumor growth"}, {"measurement": "brain edema", "setting": "aggressive brain tumors; versus placebo or Temodar treated mice", "value": "much less brain edema"}, {"measurement": "phosphorylation level of known Src protein substrates", "setting": "[3]", "value": "reduce the phosphorylation level of known Src protein substrates in a dose-dependent fashion"}, {"measurement": "Kp", "setting": "[4]; brain (relative to plasma), mice, read-out: ratio of drug levels in the brain compared to plasma levels", "value": 0.76}, {"measurement": "Kp", "setting": "[4]; brain, administered to mice, read-out: brain penetration", "value": 0.76}, {"measurement": "phosphorylation level of known Src protein substrates", "setting": "[5]", "value": "reduce the phosphorylation level of known Src protein substrates in a dose-dependent fashion"}, {"measurement": "expression and localization of intracellular survivin", "setting": "survivin", "value": "increased expression and altered the localization of intracellular survivin"}, {"measurement": "second GL261 tumor implant challenge", "setting": "GL261 glioma; \"cured\" / long term survivor immune-competent C57BL/6 mice", "value": "rejected a second GL261 tumor implant challenge; also recorded: rejection of a second tumor"}, {"measurement": "median survival time (MeST)", "setting": "GL261 glioma; [8]", "value": 30.5, "unit": "days"}, {"measurement": "survival time range", "setting": "GL261 glioma; [8]", "value": "23 to 32", "unit": "days"}, {"measurement": "median survival time (MeST)", "setting": "GL261 glioma; oral 30 mg/kg, s.i.d., C57BL/6, intracerebral GL261", "value": "over 120 days"}, {"measurement": "treatment group still alive 12 months later", "setting": "GL261 glioma; oral 30 mg/kg, s.i.d., p<0.0001", "value": "more than 60%"}, {"measurement": "growth rate of intracerebral GL261 glioma", "setting": "GL261 glioma; relative to control groups, five independent studies", "value": "slows the growth rate"}, {"measurement": "treated mice with complete tumor regression without further progression", "setting": "GL261 glioma; single dose per day (s.i.d.)", "value": "up to 60%"}]}
